One experiment deals with T1, p38α (Homo sapiens, UniProt Q16539).
T1 construct: selectively degrades p38α, whereas exemplary PROTAC 46 (10-atom linker, phenyl attachment) selectively degrades p38δ in MDA-MB-231 cells; endogenous in cells; host or cells: MDA-MB-231
As to the kind of experiment: Western blot survey of p38 isoform degradation in MDA-MB-231 cells (incl. proteasome rescue, CHX chase, washout). Format: cell-based. As to conditions: for Dmax: read-out: p38α Dmax (maximum percentage of degradation achieved). On the procedure:
(§1) FIGS. 11A and 11B. Survey of p38 isoform degradation with foretinib-based VHL PROTACs (related to FIGS. 9A-9C and Table 13). (A) Western blots of amide series PROTACs tested in increasing concentrations (0.025, 0.100, 0.250, 1.0, 5.0 μM) on MDA-MB-231 cells, in duplicate. (B) Same as in (A) but with the phenyl series PROTACs. Summary table of the DC50 (concentration at which half-maximal degradation is achieved) and Dmax (maximum percentage of degradation achieved) is reported, per exemplary PROTAC, in Table 13.
(§2) FIGS. 13A, 13B, 13C, and 13D. Exemplary compounds 50 and 46 degrade p38 isoforms in a manner that is rapid, sustained, and proteasome-dependent. (A) MDA-MB-231 cells were either pre-treated or not with the proteasome inhibitor epoxomicin (1 μM) or the neddylation inhibitor MLN4924 (1 μM) for 30 minutes and subsequently treated with either vehicle (DMSO), exemplary compound 50 (250 nM), or exemplary compound 46 (250 nM) for 6 hours. (B) Quantitative real-time PCR was performed after 24 hours of treatment with either vehicle (DMSO), exemplary compound 50 (250 nM), or exemplary compound 46 (250 nM) in MDAMB-231 cells. The dotted line represents DMSO-treated conditions standardized to a value of 1.0 and mRNA abundance (per treatment group) is represented as a foldchange relative to that value. Data is based on biological duplicates and is normalized to beta-tubulin. (C) Cycloheximide (CHX) chase assay. MDA-MB-231 cells were pre-treated with 100 μg/mL CHX for 1 hour prior to treating for the indicated times with either vehicle (DMSO), exemplary compound 50 (250 nM), or exemplary compound 46 (250 nM). Tubulin-normalized p38α and p38δ abundance values are reported beneath individual lanes. (D) MDA-MB231 cells were treated with either vehicle (DMSO), exemplary compound 50 (250 nM), or exemplary compound 46 (250 nM) for 24 hours before re-plating onto new plastic in fresh medium for an additional 24, 48, or 72 hours (“washout” conditions).
(§3) Cell culture. MDA-MB-231 and HeLa cells were obtained from the American Type Culture Collection (ATCC), cultured in RPMI-1640 (1×) and DMEM (1×) medium, respectively, containing 10% fetal bovine serum (FBS) and 1% penicillin-streptomycin and grown in a humidified incubator at 37° C. and 5% CO2.
(§4) Lysates from MDA-MB-231 cells were washed once with ice cold PBS (1×), followed by lysis in buffer containing 25 mM Tris [pH 7.5], 0.25% sodium deoxycholate, 1% Triton X-100, supplemented with 1× protease inhibitor cocktail (Roche) and phosphatase inhibitors (10 mM NaF, 1 mM Na3VO4, and 20 mM β-glycerophosphate), unless otherwise noted. Lysates were spun at 14,000×g for 10 minutes at 4° C. and supernatant was evaluated for protein content using a Pierce BCA Protein Assay (Thermo Fisher Scientific). 25 to 50 μg of protein was loaded onto 10% SDS-PAGE gels or 4-20% Criterion TGX precast gradient gels (Bio-Rad), transferred to nitrocellulose membranes, and probed with the specified antibodies overnight at 4° C. in 1×TBS-Tween (Tris buffered saline plus 0.02% Tween 20) containing 5% non-fat milk. Immunoblots were visualized using a Bio-Rad ChemiDoc imaging instrument and subsequently processed and quantified using the accompanying Bio-Rad ImageLab software.
(§5) MDA-MB-231 cells were plated at 3×10^5 cells per well in a 6-well dish, allowed to adhere overnight, and switched to serum-free RPMI-1640 (1×) media for 16 hours. Cells were then pre-treated with cycloheximide (Sigma) at 100 μg mL^−1 for 1 hour prior to adding either vehicle (DMSO) or PROTAC (250 nM). At the indicated timepoints, cells were immediately placed on ice, rinsed with 1×PBS, lysed, and boiled.
(§6) MDA-MB-231 cells were plated at 1.5×10^5 cells per well in a 6-well dish and allowed to adhere overnight. On the following day, all cells were treated with either vehicle (DMSO) or PROTAC (250 nM). […]
(In western blotting, separated proteins are transferred to a membrane and probed.)

The target of the next experiment is T2, p38δ (Homo sapiens, UniProt O15264).
T2 construct: endogenous in cells; host or cells: MDA-MB-231 (intact cells for degradation; cleared cell lysate for CETSA)
T2 sequence (O15264 1-365): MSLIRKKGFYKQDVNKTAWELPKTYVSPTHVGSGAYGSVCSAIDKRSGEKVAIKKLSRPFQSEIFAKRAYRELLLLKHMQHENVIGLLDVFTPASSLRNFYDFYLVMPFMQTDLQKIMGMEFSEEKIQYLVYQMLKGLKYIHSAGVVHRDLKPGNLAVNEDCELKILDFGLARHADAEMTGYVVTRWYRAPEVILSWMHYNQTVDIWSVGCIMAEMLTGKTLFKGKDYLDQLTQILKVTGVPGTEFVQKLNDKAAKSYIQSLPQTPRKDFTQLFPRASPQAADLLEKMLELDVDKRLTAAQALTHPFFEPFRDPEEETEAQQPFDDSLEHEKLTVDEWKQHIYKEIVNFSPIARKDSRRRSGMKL
The experiment is described as above. The format is cell-based. On the procedure: as §1, §2, §3, §4, §5, §6

[1] abbreviates: 250 nM 24 hours, then re-plated without compound.
[2] abbreviates: 250 nM PROTAC 6 hours, pre-treated 1 μM epoxomicin or 1 μM MLN4924.
Setting [3] is: MDA-MB-231 cells, western blot, read-out: p38α DC50 (concentration at which half-maximal degradation is achieved).

Each structure is given as a SMILES string. Read-outs that look alike come from different tables or passages of the source.

T1 sequence (Q16539 whole entry): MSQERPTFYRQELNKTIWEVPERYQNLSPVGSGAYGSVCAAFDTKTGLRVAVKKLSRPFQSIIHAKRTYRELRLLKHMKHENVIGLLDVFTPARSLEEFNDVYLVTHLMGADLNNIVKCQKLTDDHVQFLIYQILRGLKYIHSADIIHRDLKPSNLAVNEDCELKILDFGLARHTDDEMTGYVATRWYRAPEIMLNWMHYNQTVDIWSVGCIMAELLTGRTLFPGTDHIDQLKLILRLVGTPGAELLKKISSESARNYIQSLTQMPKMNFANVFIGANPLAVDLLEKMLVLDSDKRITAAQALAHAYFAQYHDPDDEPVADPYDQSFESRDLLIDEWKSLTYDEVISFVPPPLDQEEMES

A word on the Dmax: it is the largest share of the target that was removed. As to `COc1cc2c(Oc3ccc(NC(=O)C4(C(=O)Nc5ccc(F)cc5)CC4)cc3F)ccnc2cc1OCCOCCOCCOc1cc(-c2scnc2C)ccc1CNC(=O)[C@@H]1C[C@@H](O)CN1C(=O)[C@H](C(C)C)N1Cc2ccccc2C1=O` [compound 46], the DC50 on p38α (MDA-MB-231 cells, western blot, read-out: p38α DC50) is more than 5 µM; at p38δ (MDA-MB-231 cells, western blot) it was 0.0792 ± 0.028 µM. Moreover, the Dmax on p38α (MDA-MB-231 cells, western blot) is 35%; on p38δ (MDA-MB-231 cells, western blot), 98.4%. On p38δ (setting [1]), the “p38δ degradation efficacy maintained post-washout” value was determined as 24 h. Moreover, the “rescue of p38δ downregulation by proteasome / neddylation inhibitor” value on p38δ (setting [2]) is “completely rescued”. The “p38δ Dmax” value at p38δ (MDA-MB-231 cells, western blot) is on record as “Dmax = 98.4%”.
As for `COc1cc2c(Oc3ccc(NC(=O)C4(C(=O)Nc5ccc(F)cc5)CC4)cc3F)ccnc2cc1OCCCCOCCCCOCC(=O)N[C@H](C(=O)N1C[C@H](O)C[C@H]1C(=O)NCc1ccc(-c2scnc2C)cc1)C(C)(C)C` [compound 50, N-(3-fluoro-4-((7-(4-(4-(2-(((S)-1-((2S,4R)-4-hydroxy-2-((4-(4-methylthiazol-5-yl)benzyl)carbamoyl)pyrrolidin-1-yl)-3,3-dimethyl-1-oxobutan-2-yl)amino)-2-oxoethoxy)butoxy)buto-xy)-6-methoxyquinolin-4-yl)oxy)phenyl)-N-(4-fluorophenyl)cyclopropane-1,1-dicarboxa-mide], the “p38α degradation efficacy maintained post-washout” value on p38α (setting [1]) amounted to 72 h. Besides, the “rescue of p38α downregulation by proteasome / neddylation inhibitor” value on p38α (setting [2]) was “completely rescued”. At p38α (MDA-MB-231 cells, western blot), the “p38α Dmax (maximum percentage of degradation achieved)” value is listed as “Dmax = 99.6%” and the Dmax was determined as 99.6%. Also, on p38α (setting [3]), the DC50 came out at 0.0095 ± 0.001 µM. For the same compound, at p38δ (MDA-MB-231 cells, western blot), the DC50 was more than 5 µM and the Dmax stood at 18.5%.
As for `COc1cc2c(Oc3ccc(NC(=O)C4(C(=O)Nc5ccc(F)cc5)CC4)cc3F)ccnc2cc1OCCCOCCCOCCC(=O)N[C@H](C(=O)N1C[C@H](O)C[C@H]1C(=O)NCc1ccc(-c2scnc2C)cc1)C(C)(C)C` [Example 1], the DC50 at p38α (setting [3]) is 0.23 µM; at p38δ (MDA-MB-231 cells, western blot), more than 5 µM. The Dmax is 83% on p38α (MDA-MB-231 cells, western blot) and 42% at p38δ (MDA-MB-231 cells, western blot).
